The nature of the data set: Viscometric properties (oscillatory rheology, shear sweep). It counts as physicochemical. The procedure:
The molecular weight of trisilanol i-octyl POSS® at 1184 g/mol, is generally equivalent to that of common silicone oligomers. In comparison to telechelic silanol polydimethylsiloxanes, trisilanol i-octylPOSS is unique in terms of its high viscosity (27 Pa·s at 24° C.) relative to the 4.3 wt % of silanol it contains. Telechelic silanol polydimethylsiloxanes and diphenyl-siloxane-dimethyl-siloxane copolymers with equivalent silanol contents are generally low viscosity fluids
Oscillatory rheology was utilized to determine the viscometric characteristics of i-octylPOSS trisilanol versus mixtures containing solid hemostatic agents suspended in the carrier fluid, i-octylPOSS trisilanol. The solid hemostatic agents utilized for these tests were chitin and kaolin. Shear sweep measurements of viscosity at 37° C. over the range of 0.01-100 s^−1 were deemed adequate to assess reproducibility of the hemostat agent mixtures.
It is non-Newtonian attributes are evidenced by a reduction of viscosity relative to shear rate. The shear thinning behavior is useful as it enables the hemostat to be syringable or pourable yet to remain in place once deposited onto a wound. Desirably, the viscosity of this hemostat can be controlled simply by increasing or decreasing the amount of kaolin incorporation.
A similar viscosity test was performed using chitin as the solid hemostatic additive.

Substance “trisilanol hepta-isoOctyl POSS [i-octylPOSS trisilanol]” came in with a viscosity (at 24° C.) of 27 Pa·s. Moreover, the “rheological behaviour (viscosity relative to shear rate)” value (shear sweep 0.01-100 s^−1 at 37° C.) was “Newtonian fluid”.

The values above are taken from US12642886B2, “POSS viscoelastic hemostatic agents” (Hybrid Plastics, Incorporated, priority 2019, dated 2026).
